Assay results as given in the supplement of paper PMC10307832.

What was measured:
Test in all cases: relative viability (nuclei count vs DMSO), 5 days (fraction); higher = more cells survive
[1] = compound: CC(C)N(CCCNC(=O)Nc1ccc(C(C)(C)C)cc1)C[C@H]1O[C@@H](n2ccc3c(N)ncnc32)[C@H](O)[C@@H]1O + CC(C)C[C@H](NC(=O)[C@H](Cc1ccccc1)NC(=O)c1cnccn1)B(O)O [Bortezomib] (partner 0.002 µM)
Summary of the method: (§1)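 Medians of duplicate plates are given as relative viability. That measure is the nuclei count in treated wells divided by the count in vehicle wells. Counts were taken on 4× images of lung cancer cell lines in 1536-well plates, 5 days after pin-tool dosing the day after seeding with one drug alone or a fixed anchor-drug dose plus five library-drug doses (not always all listed) in √10 steps.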

[2] = compound: CC(C)N(CCCNC(=O)Nc1ccc(C(C)(C)C)cc1)C[C@H]1O[C@@H](n2ccc3c(N)ncnc32)[C@H](O)[C@@H]1O + CC(=O)c1c(C)c2cnc(Nc3ccc(N4CCNCC4)cn3)nc2n(C2CCCC2)c1=O [Palbociclib] (partner 0.5 µM)
Summary of the method: as §1

[3] = compound: CC(C)N(CCCNC(=O)Nc1ccc(C(C)(C)C)cc1)C[C@H]1O[C@@H](n2ccc3c(N)ncnc32)[C@H](O)[C@@H]1O + NC(=O)Nc1cc(-c2cccc(F)c2)sc1C(=O)N[C@H]1CCCNC1 [AZD7762] (partner 0.2 µM)
Summary of the method: as §1

Shikonin + Alpelisib = compound: CC(C)=CC[C@@H](O)C1=CC(=O)c2c(O)ccc(O)c2C1=O [Shikonin] + Cc1nc(NC(=O)N2CCC[C@H]2C(N)=O)sc1-c1ccnc(C(C)(C)C(F)(F)F)c1 [Alpelisib] (partner 2 µM)
Summary of the method: as §1

Cell Line | relative viability ([1]; first compound 0.08 µM) | relative viability ([1]; first compound 0.253 µM) | relative viability ([1]; first compound 2.53 µM) | relative viability ([1]; first compound 8 µM) | relative viability ([2]; first compound 0.08 µM) | relative viability ([2]; first compound 0.253 µM) | relative viability ([2]; first compound 2.53 µM) | relative viability ([2]; first compound 8 µM) | relative viability ([3]; first compound 0.08 µM) | relative viability ([3]; first compound 0.253 µM) | relative viability ([3]; first compound 2.53 µM) | relative viability ([3]; first compound 8 µM) | relative viability (Shikonin + Alpelisib; first compound 0.01 µM) | relative viability (Shikonin + Alpelisib; first compound 0.1 µM) | relative viability (Shikonin + Alpelisib; first compound 0.3162 µM) | relative viability (Shikonin + Alpelisib; first compound 1 µM) | relative viability ([1]; first compound 0.8 µM) | relative viability ([2]; first compound 0.8 µM) | relative viability ([3]; first compound 0.8 µM)
ABC-1 | 0.28 | 0.249 | 0.344 | 0.325 | 0.665 | 0.868 | 0.763 | 0.655 | 0.933 | 0.954 | 1.02 | 0.729 | 1.17 | 1.3 | 0.901 | 0.514 | – | – | –
NCI-H2405 | 0.986 | 0.989 | 0.994 | 0.819 | 0.515 | 0.539 | 0.546 | 0.507 | 0.742 | 0.817 | 0.844 | 0.699 | 0.742 | 0.798 | 0.864 | 0.761 | 0.918 | 0.532 | 0.689
NCI-H441 | – | 0.488 | 0.875 | 0.819 | 0.203 | 0.186 | 0.237 | 0.216 | 1.04 | 1.13 | 1.07 | 1.33 | 1.14 | 0.874 | 0.508 | 0.729 | 0.144 | – | –
PC-3 [JPC-3] | 0.79 | 0.927 | 0.749 | 0.815 | 0.54 | 0.53 | 0.507 | 0.487 | 0.759 | 0.81 | 0.794 | 0.872 | 1.04 | 1.11 | 1.05 | 1.08 | 0.317 | – | –
HARA | 1.13 | 1.15 | 1.03 | 1.02 | 0.249 | 0.223 | 0.208 | 0.26 | 0.344 | 0.244 | 0.655 | 0.299 | 0.871 | 0.871 | 0.923 | 0.917 | 0.604 | 0.311 | 0.334
NCI-H2126 | 1.03 | 1.12 | 1.08 | 1.05 | 0.358 | 0.366 | 0.378 | 0.371 | 0.913 | 1.01 | 0.988 | 0.965 | 0.764 | 0.843 | 0.786 | 0.763 | 1.14 | 0.355 | 0.956
NCI-H1437 | 0.526 | 0.417 | 0.423 | 0.536 | 0.299 | 0.289 | 0.275 | 0.307 | 1.13 | 1.06 | 1.07 | 1.14 | 0.987 | 1.14 | 0.987 | 1.1 | 0.309 | 0.288 | 1.15
NCI-H1792 | 0.932 | 0.839 | 0.945 | 1.01 | 0.631 | 0.671 | 0.639 | 0.643 | 0.68 | – | 0.569 | 0.601 | 0.776 | 0.557 | 0.786 | 0.727 | 0.979 | 0.773 | 0.46
NCI-H727 | 0.829 | 0.696 | 0.935 | 0.734 | 0.694 | 0.578 | 0.82 | 0.62 | 0.634 | 0.624 | 0.328 | 0.694 | 0.447 | 0.547 | 0.62 | 0.405 | 0.583 | 0.769 | 0.649
201T | 1.08 | 1.11 | 1.07 | 1.06 | 0.338 | 0.352 | 0.328 | 0.357 | 0.6 | 0.554 | 0.56 | 0.622 | 0.941 | 1.11 | 0.997 | 1.02 | 1.03 | – | –
HCC-44 | 0.902 | 1.01 | 0.991 | 0.842 | 0.968 | 1.05 | 0.931 | 0.91 | 1 | 1.1 | 1.04 | 0.929 | 0.972 | 0.849 | 0.933 | 0.852 | 0.774 | 0.845 | 0.897
NCI-H650 | 0.785 | 0.598 | 0.682 | 0.796 | 0.349 | 0.339 | 0.319 | 0.348 | 1.07 | 0.956 | 0.87 | 1.04 | 1.3 | – | 1.13 | 1.08 | 0.773 | 0.323 | 0.878
H3255 | 0.867 | 0.618 | 0.638 | 0.747 | 0.328 | 0.33 | 0.299 | 0.316 | 0.922 | 0.864 | 0.823 | 0.678 | 0.637 | 0.721 | 0.629 | 0.689 | 0.406 | 0.308 | 0.827
NCI-H2085 | 1.02 | 0.925 | 1.09 | 0.907 | 0.47 | 0.48 | 0.547 | 0.481 | 0.979 | 0.766 | 1.08 | 1 | 0.986 | 0.913 | 0.905 | 0.685 | 0.749 | 0.524 | 0.921
NCI-H2347 | 1.14 | 0.871 | 0.924 | 1 | 0.423 | 0.44 | 0.553 | 0.404 | 0.795 | 0.815 | 0.803 | 0.746 | 0.992 | 0.99 | 0.962 | 1.03 | 0.534 | 0.407 | 0.605
NCI-H647 | 0.761 | – | 0.821 | 0.809 | 0.35 | 0.396 | 0.406 | 0.421 | 0.457 | 0.523 | 0.366 | 0.414 | 1.21 | 1.23 | 0.926 | 1.14 | 0.2 | 0.3 | 0.509
EKVX | 1.06 | 1.24 | 0.993 | 0.786 | 0.418 | 0.346 | 0.433 | 0.371 | 0.7 | 0.716 | 0.767 | 0.621 | 0.863 | 0.973 | 1.07 | 0.846 | 1.08 | 0.41 | 0.702
EPLC-272H | 0.871 | 0.819 | 0.923 | 0.942 | 0.365 | 0.342 | 0.36 | 0.398 | 0.262 | 0.238 | 0.259 | 0.35 | 0.964 | 1.06 | 0.946 | 0.962 | 0.397 | 0.366 | 0.21
LXF-289 | 1 | 0.993 | 1.03 | 0.98 | 0.705 | 0.591 | 0.656 | 0.652 | 1.1 | 1.1 | 1.12 | 1 | 1.12 | 0.963 | 1.02 | 1.03 | 0.719 | 0.6 | 1.09
NCI-H3122 | 1.02 | 0.994 | 1.03 | 0.978 | 0.204 | 0.162 | 0.198 | 0.197 | 0.967 | 1.03 | 0.907 | 0.959 | 0.752 | 0.823 | 0.844 | 0.79 | 1.04 | 0.161 | 1.02
NCI-H1755 | 0.934 | 0.914 | 0.929 | 0.878 | 0.437 | 0.435 | 0.484 | 0.498 | 0.473 | 0.401 | 0.444 | 0.426 | 1.02 | 0.946 | 1.07 | 0.97 | 0.467 | 0.45 | 0.44
HCC-78 | 0.488 | – | 0.305 | 0.577 | 0.391 | 0.484 | 0.458 | 0.476 | 0.613 | 0.519 | 0.576 | 0.64 | 0.311 | 0.347 | 0.352 | 0.349 | 0.213 | 0.502 | 0.583
LOU-NH91 | 0.442 | 0.449 | 0.421 | 0.608 | 0.538 | 0.503 | 0.53 | 0.611 | 0.751 | 0.697 | 0.763 | 0.767 | 0.703 | 0.73 | 0.839 | 0.727 | – | – | –
NCI-H322M | 1.11 | 1.13 | 1.39 | 1.38 | 0.481 | 0.488 | 0.489 | 0.532 | 0.529 | 0.541 | 0.51 | 0.803 | 0.73 | 0.77 | 0.856 | 0.857 | 1.12 | 0.494 | 0.751
HCC-827 | 1.08 | 0.969 | 1.02 | 0.993 | 0.22 | 0.468 | 0.477 | 0.5 | 0.259 | 0.252 | 0.203 | 0.242 | 0.996 | 1.11 | 0.994 | 0.812 | 0.668 | 0.32 | 0.403
NCI-H1975 | 0.34 | 0.352 | 0.36 | 0.341 | 0.557 | 0.486 | 0.499 | 0.497 | 0.701 | 0.686 | 0.642 | 0.53 | 0.676 | 0.712 | 0.702 | 0.538 | 0.149 | 0.205 | –
NCI-H1651 | 0.958 | 0.957 | 0.943 | 0.944 | 0.497 | 0.485 | 0.515 | 0.518 | 0.545 | 0.562 | 0.46 | 0.457 | 0.921 | 0.98 | 1 | 1.07 | 0.967 | 0.49 | 0.468
NCI-H460 | 0.967 | 1.3 | 1.15 | 1.13 | 0.207 | 0.201 | 0.181 | 0.111 | 0.725 | 0.58 | 0.499 | 0.585 | 0.522 | 0.841 | 0.618 | 0.569 | 1.2 | 0.139 | 0.605
LCLC-103H | 1.09 | 1 | 1.04 | 1.02 | 0.488 | 0.47 | 0.482 | 0.459 | 0.745 | 0.805 | 0.701 | 0.727 | 0.984 | 0.994 | 0.896 | 0.978 | 0.686 | 0.438 | 0.686
